Laboratory results: article PMC7753040, “Discovery of a Potent RIPK3 Inhibitor for the Amelioration of Necroptosis-Associated Inflammatory Injury” (Frontiers in Cell and Developmental Biology, 2020)
Read-outs that look alike come from different tables or passages of the source.

Columns and labels:
[1] = tested on: rat bone marrow derived macrophages; assay: TLR4-mediated necroptosis induced by LPS/z-VAD in rat bone marrow-derived macrophages; assay type: cell-based; conditions: rat BMDM; 2 h pretreatment, LPS 20 ng/ml plus z-VAD for 24 h
Excerpt: (§1) Human colon cancer HT-29 and mouse fibrosarcoma L929 cells were from ATCC. Mouse embryonic fibroblasts (MEF), HT-29 cells stably expressing RIPK3-shRNA and shRNA resistant scramble Flag-tagged RIPK3 (W46), and NIH3T3 cell line stably expressing RIPK3 fused to mutant FK506-binding protein (NIH3T3-RIPK3) were kindly provided by Dr. Xiaodong Wang [National Institute of Biological Sciences (NIBS), Beijing]. HeLa-MLKL (1-190) cell line was a gift from Dr. Zhigao Wang (University of Texas Southwestern Medical Center at Dallas). These cells were cultured in Dulbecco’s modified Eagle’s medium (Hyclone) supplemeted with 10% fetal bovine serum (Invitrogen) and 2 mM L-glutamine (Invitrogen) in a humidified incubator at 37°C and 5% CO2. NIH3T3-RIPK3 was cultured in complete medium containing 2 μg/ml G418 (Calbiochem). […]
(§2) Cells were seeded in 96-well plates and then treated as indicated. The cell viability was determined by assessment of ATP levels using the CellTiter-Glo Luminescent Cell Viability Assay kit following the manufacture’s instructions (Promega). Luminescence was calculated with SpectraMax i3x (Molecular Devices).
(§3) Cell viability was determined by measuring ATP levels. […] After 5 h, cell viability was determined by measuring ATP levels and ICP6 mRNA expression was detected using viral genome extracted from cell culture supernatant. *P < 0.05. **P < 0.01. ***P < 0.001.

NIH3T3-RIPK3 cells = assay: RIPK3 dimerization-induced cell death in NIH3T3-RIPK3 cells (AP20187); assay type: cell-based, mouse; conditions: 2 h pretreatment, AP20187 60 nM 24 h
Excerpt: as §1, with “CO2.” for “CO2. NIH3T3-RIPK3 was cultured in complete medium containing 2 μg/ml G418 (Calbiochem).”
as §2
In vitro kinase activity assays using recombinant RIPK3 and RIPK1 were performed as described in the section “Materials and Methods.” Data represent mean value ± standard deviation. […] Cell viability was determined by measuring ATP levels. […] Cell viability was determined by measuring ATP levels. […]

mouse BMDM = assay: LPS/z-VAD-induced expression of inflammatory cytokines in mouse BMDM (Q-PCR); assay type: cell-based; conditions: 2 h pretreatment, LPS 20 ng/ml plus z-VAD 20 μM, 7 h, mRNA
Procedure: Total RNA was extracted using TRIzol Reagent (Invitrogen) from cell pellets. cDNA was synthesized using a Revert Aid First Strand cDNA kit (Thermo Fisher Scientifc). Real-time PCR was performed using corresponding primers and Power SYBR® Green PCR Master Mix (Invitrogen). The data were normalized to GAPDH. The primer sequences are as follows: ICP6 Forward: […], Reverse: GGT […]; TNFα Forward: […], Reverse: […]; CCL3 Forward: […], Reverse: […]; CXCL1 Forward: GCACCC […], Reverse: […] CAGA; GAPDH Forward: […], Reverse: […].

MEFs = assay: Activation of caspase-3 / apoptosis in MEFs (western blot, cell viability); assay type: cell-based
Procedure: In vitro kinase activity assays using recombinant RIPK3 and RIPK1 were performed as described in the section “Materials and Methods.” Data represent mean value ± standard deviation. […] NIH3T3-RIPK3 cells were pretreated with indicated compounds for 2 h and subsequently treated with AP20187 (60 nM) for 24 h. Cell viability was determined by measuring ATP levels. […] HeLa-MLKL (1–190) cells were induced by doxycycline (1 μg/ml) for 24 h. Cells were pretreated with indicated compounds for 2 h and subsequently treated with AP20187 (60nM) for 24h. Cell viability was determined by measuring ATP levels. […] (F) MEFs were treated as indicated for 3 h. Cell lysates were harvest and subjected to western-blot analysis for full length and cleaved caspase 3.

[2] = tested on: mouse bone marrow derived macrophages; assay: TLR4-mediated necroptosis induced by LPS/z-VAD in mouse bone marrow-derived macrophages; assay type: cell-based; conditions: mouse BMDM; 2 h pretreatment, LPS 20 ng/ml plus z-VAD for 24 h
Excerpt: as §1, §2, §3

[3] = Metabolic stability in rat liver microsomes; assay type: in vitro ADME
RIPK1/RIPK3 complex = molecular target: T1, RIPK1/RIPK3 complex (Homo sapiens, UniProt Q9Y572); assay: RIPK1/RIPK3 necrosome formation in HT-29 cells stably expressing Flag-RIPK3 (immunoprecipitation); assay type: cell-based; conditions: TNF-α/Smac/z-VAD 8 h
T1 construct: expressed in transfected cells; host or cells: HT-29 (W46), gift of Dr. Xiaodong Wang
Procedure: The cell pellets were harvested and dissolved in lysis buffer (20 mM Tris–HCl, pH 7.4 150 mM NaCl, 1% Triton X-100, 1 mM Na3VO4, 10% glycerol, 25 mM β-glycerol-phosphate, 0.1 mM PMSF, with the Sigma phosphatase inhibitors and the Roche Pierce protease inhibitor set). The re-suspended cell pellet was then incubated on ice for 20 min, followed by centrifugation at 13000 × g for 20 min at 4°C. The supernatants were collected and protein concentrations were measured using the BCA Protein Assay Kit (Thermo Fisher Scientifc, United States). Finally, cell lysates were subjected for western-blot analysis of the indicated antibodies.
Cell lysates were prepared for immunoprecipitation using an anti-Flag antibody. The levels of RIPK3 and RIPK1 in the immunocomplex were determined by western blot analysis.

CYP1A2 = CYP1A2 (Homo sapiens, UniProt P05177); assay: Cytochrome P450 inhibition, CYP1A2; assay type: in vitro ADME
Procedure: (§4) Cytochrome P450 (CYP) inhibitory potency was determined by industrial standard methods as reported previously ([Dong et al., 2015]). Methods to determine potassium channel hERG inhibition and in vivo pharmacokinetic parameters have been previously published ([Lu et al., 2017]).

[4] = In vivo mouse pharmacokinetic study; conditions: male ICR mouse
Procedure: as §4
(C) Pharmacokinetic parameters of Zharp-99 determined in male ICR mouse.

CYP2D6 = CYP2D6 (Homo sapiens, UniProt P10635); assay: Cytochrome P450 inhibition, CYP2D6; assay type: in vitro ADME
Procedure: as §4

CYP2C19 = CYP2C19 (Homo sapiens, UniProt P33261); assay: Cytochrome P450 inhibition, CYP2C19; assay type: in vitro ADME
Procedure: as §4

C57BL/6 mice = assay: TNF-induced systemic inflammatory response syndrome in mice
Procedure: The status of mice was monitored by measuring anal temperature. Mice mortality was continuously monitored till 60 h after TNF-α administration. Blood was collected 4 h post TNF-α challenge and serum was isolated for further examination.
(A,B) The survival rate (A) and body temperature loss (B) were monitored. […] P-values were determined using the ONE-way ANOVA and multi-comparison test for statistics analysis. (C) After 4 h, serum was collected for mouse IL6 level analysis by ELISA. Data are represented as the mean ± standard deviation.

[5] = 5 mg/kg i.p. 15 min before mouse TNF-α 6.5 μg/mouse i.v.

Chain of CYP2D6 (P10635 whole entry): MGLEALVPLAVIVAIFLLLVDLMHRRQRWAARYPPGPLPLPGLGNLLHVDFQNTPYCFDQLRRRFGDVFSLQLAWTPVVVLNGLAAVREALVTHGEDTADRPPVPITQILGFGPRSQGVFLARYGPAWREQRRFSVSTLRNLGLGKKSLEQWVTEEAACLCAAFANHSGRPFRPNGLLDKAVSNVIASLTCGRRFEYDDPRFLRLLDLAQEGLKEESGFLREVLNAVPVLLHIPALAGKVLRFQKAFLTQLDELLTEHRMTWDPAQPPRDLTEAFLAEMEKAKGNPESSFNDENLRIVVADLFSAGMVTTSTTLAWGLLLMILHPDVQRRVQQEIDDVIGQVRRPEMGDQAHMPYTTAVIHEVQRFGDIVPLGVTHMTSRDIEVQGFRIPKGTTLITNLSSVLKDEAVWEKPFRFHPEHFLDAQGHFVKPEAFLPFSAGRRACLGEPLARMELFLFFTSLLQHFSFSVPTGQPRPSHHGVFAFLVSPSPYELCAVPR
Chain of CYP2C19 (P33261 whole entry): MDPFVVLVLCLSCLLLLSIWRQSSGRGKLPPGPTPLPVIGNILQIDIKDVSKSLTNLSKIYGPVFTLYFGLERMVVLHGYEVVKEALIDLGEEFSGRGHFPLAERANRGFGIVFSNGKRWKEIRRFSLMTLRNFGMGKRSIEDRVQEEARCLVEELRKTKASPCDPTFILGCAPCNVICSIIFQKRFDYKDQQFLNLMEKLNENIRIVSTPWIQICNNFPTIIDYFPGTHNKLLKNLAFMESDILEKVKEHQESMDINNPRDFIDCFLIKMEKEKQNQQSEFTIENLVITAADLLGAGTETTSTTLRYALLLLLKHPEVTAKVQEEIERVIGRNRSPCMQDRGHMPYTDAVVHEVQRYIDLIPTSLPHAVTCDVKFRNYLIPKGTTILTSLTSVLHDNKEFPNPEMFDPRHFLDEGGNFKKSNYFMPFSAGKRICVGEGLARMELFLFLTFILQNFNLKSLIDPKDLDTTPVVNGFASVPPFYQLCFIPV
Chain of CYP1A2 (P05177 whole entry): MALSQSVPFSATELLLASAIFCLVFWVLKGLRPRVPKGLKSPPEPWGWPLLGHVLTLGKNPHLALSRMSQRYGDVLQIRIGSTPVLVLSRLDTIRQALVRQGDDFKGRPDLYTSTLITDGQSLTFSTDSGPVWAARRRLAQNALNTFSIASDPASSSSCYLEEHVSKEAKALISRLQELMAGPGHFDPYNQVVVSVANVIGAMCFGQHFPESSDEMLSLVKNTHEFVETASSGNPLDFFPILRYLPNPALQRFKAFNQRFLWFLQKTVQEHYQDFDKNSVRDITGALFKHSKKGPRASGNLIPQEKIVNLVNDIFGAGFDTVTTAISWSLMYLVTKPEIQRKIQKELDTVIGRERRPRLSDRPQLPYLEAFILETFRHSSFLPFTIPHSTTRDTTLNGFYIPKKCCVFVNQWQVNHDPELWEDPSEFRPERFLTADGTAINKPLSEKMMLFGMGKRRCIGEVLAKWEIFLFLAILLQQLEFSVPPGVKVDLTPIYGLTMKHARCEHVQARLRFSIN
T1 sequence (Q9Y572 whole entry): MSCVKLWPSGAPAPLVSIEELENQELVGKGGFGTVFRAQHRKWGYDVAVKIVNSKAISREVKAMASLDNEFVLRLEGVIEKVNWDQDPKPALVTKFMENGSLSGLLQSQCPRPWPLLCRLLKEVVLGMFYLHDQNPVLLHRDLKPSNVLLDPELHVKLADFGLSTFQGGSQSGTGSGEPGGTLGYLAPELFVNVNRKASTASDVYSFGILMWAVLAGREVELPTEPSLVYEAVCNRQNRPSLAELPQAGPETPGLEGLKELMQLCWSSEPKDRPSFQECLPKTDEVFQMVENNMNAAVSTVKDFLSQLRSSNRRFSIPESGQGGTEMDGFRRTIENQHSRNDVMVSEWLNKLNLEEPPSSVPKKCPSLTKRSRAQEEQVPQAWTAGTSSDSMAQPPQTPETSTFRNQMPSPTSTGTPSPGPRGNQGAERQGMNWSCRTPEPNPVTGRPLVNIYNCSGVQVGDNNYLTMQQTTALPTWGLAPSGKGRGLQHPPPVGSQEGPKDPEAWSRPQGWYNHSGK
T1 sequence (Q13546 whole entry partner): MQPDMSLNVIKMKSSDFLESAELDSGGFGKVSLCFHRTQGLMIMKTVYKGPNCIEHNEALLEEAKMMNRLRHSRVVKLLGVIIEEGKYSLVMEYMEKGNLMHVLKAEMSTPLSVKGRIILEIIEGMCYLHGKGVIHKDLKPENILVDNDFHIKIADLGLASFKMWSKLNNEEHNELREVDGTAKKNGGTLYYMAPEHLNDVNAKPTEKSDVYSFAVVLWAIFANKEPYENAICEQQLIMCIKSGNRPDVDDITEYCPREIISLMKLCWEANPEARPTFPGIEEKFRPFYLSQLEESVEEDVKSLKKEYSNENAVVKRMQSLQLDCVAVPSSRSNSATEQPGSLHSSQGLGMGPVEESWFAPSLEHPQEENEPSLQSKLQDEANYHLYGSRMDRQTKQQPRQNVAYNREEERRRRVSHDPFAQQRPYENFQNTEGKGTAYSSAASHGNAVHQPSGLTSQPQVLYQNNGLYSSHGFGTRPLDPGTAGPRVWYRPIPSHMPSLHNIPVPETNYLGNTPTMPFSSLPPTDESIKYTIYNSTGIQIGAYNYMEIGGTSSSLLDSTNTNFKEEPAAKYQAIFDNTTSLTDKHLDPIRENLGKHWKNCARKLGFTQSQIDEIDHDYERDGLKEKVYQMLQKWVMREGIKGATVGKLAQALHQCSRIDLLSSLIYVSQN

Compound: O=S1(=O)C=C(C2CC2)c2cc3nccc(Nc4ccc5scnc5c4)c3cc21 [Zharp-99]
- inhibition of TLR4-mediated necroptosis induced by LPS/z-VAD [1]: potently blocked
- RIPK3 dimerization-induced necroptosis (NIH3T3-RIPK3 cells): efficiently blocked
- LPS/z-VAD-induced expression of inflammatory cytokines including TNFα, CCL3, and CXCL1 (mouse BMDM): could inhibit
- induction of apoptosis compared to GSK’872 (MEFs; MEFs): more potent
- activation of caspase-3 and cell death (MEFs; especially in mouse cells, MEFs treated 3 h (western blot)): induced activation of caspase-3 and cell death in a dose-dependent manner
- inhibition of TLR4-mediated necroptosis induced by LPS/z-VAD [2]: potently blocked
- CLint scaled ([3]; rat liver microsomes): 67 mL/min/kg
- Clint ([3]; rat liver microsomes): moderate
- half-life ([3]; rat liver microsomes (RLM)): 0.617 h
- RIPK1/RIPK3 necrosome formation (RIPK1/RIPK3 complex): did not affect
- % of CYP inhibiton 1A2 (CYP1A2; 10 μM): did not inhibit
- inhibition at 10 µM (CYP1A2; human, read-out: % of CYP inhibiton 1A2): 9.26%
- Cmax ([4]; 2 mg/kg (iv)): 1390 ng/mL
- half-life ([4]; 2 mg/kg (iv)): 1.5 h
- AUC ([4]; 2 mg/kg (iv), read-out: AUC): 990 ng·h/mL
- clearance ([4]; 2 mg/kg (iv), read-out: CL (clearance)): 33 mL/min/kg
- Vd ([4]; 2 mg/kg (iv), read-out: Vz (volume of distribution)): 4.4 L/kg
- Cmax ([4]; 10 mg/kg (po)): 2650 ng/mL
- Tmax ([4]; 10 mg/kg (po)): 1 h
- half-life ([4]; 10 mg/kg (po)): 1.2 h
- AUC ([4]; 10 mg/kg (po), read-out: AUC (exposure)): 8220 ng·h/mL
- % of CYP inhibiton 2D6 (CYP2D6; 10 μM): did not inhibit
- inhibition at 10 µM (CYP2D6; human, read-out: % of CYP inhibiton 2D6): -0.44%
- % of CYP inhibiton 2C19 (CYP2C19; 10 μM): did not inhibit
- inhibition at 10 µM (CYP2C19; human, read-out: % of CYP inhibiton 2C19): 4.15%
- TNFα-induced temperature loss (C57BL/6 mice; [5]): ameliorated
- protection against TNFα-induced lethal shock (survival) (C57BL/6 mice; [5]): significantly protected
- TNFα-induced production of IL-6 in the serum (C57BL/6 mice; 5 mg/kg i.p., serum 4 h post TNF-α, ELISA): reduced
